The results in this text go back to patent publication EP0126348A2, “Composition for rectal administration and method of promoting rectal drug absorption” (priority 1983, dated 1984).

Read-outs that look alike come from different tables or passages of the source.

Data set [1] can be described thus: Urinary excretion of drug after rectal administration of suppositories to fasted rabbits (bioassay). The data set is classed as in vivo. As to conditions: rabbit, 100 mg, rectal suppository, 100 mg in potency, read-out: Urinary excretion (0-6 hours). As for the experimental part: (§1) The suppositories were administered rectally to dogs or rabbits fasted for 24 hours. After administration, blood or urine sampling was conducted at times intervals and the drug concentration in blood or urinary drug excretion was estimated by determining the activity concentration by the bioassay method.

The nature of data set [2]: Blood concentration of drug after rectal administration of suppositories to fasted dogs (bioassay). The data set is classed as in vivo. Conditions: rectal suppository, 100 mg in potency. As for the experimental part: as §1
The mark [3] stands for this setting: in vivo, base WITEPSOL H-5, additive Na caprate, 3%.
[4] abbreviates: dog, blood, 100 mg, base WITEPSOL H-5, additive Na caprate, 3% NIKKOL MYS-40, 4%, read-out: AUC.

Consider `NCC[C@H](O)C(=O)N[C@@H]1C[C@H](N)[C@@H](O[C@H]2O[C@H](CN)[C@@H](O)[C@H](O)[C@H]2O)[C@H](O)[C@H]1O[C@H]1O[C@H](CO)[C@@H](O)[C@H](N)[C@H]1O` [Amikacin], for which the dose excreted at 6 h in data set [1] (in vivo, base WITEPSOL H-5, additive Na caprate, 3% NIKKOL MYS-40, 4%) worked out at 56%; in data set [1] (in vivo, base WITEPSOL H-5, additive Na caprate, 3% Sodium carbonate, 4%) it was 55.5%; in data set [1] (setting [3]), 35%. The AUC (in general, the area under the concentration-time curve, a measure of exposure) in data set [2] (dog, in vivo, 100 mg, base WITEPSOL H-15, additive Na caprate, 3% NIKKOL BL-21, 3%, read-out: AUC) is 17900 ng·h/mL; in data set [2] (dog, in vivo, 100 mg, base WITEPSOL H-15, additive None, read-out: AUC), 1000 ng·h/mL.
Take `NC[C@H]1O[C@H](O[C@H]2[C@H](O)[C@@H](O[C@H]3O[C@H](CO)[C@@H](O)[C@H](N)[C@H]3O)[C@H](N)C[C@@H]2N)[C@H](N)[C@@H](O)[C@@H]1O` [Bekanamycin]: the dose excreted at 6 h in data set [1] (urine, base WITEPSOL W-35, additive Glycerol monostearate, 3% Na caprate, 3%) was determined as 48.5%; in data set [1] (urine, base WITEPSOL W-35, additive Na caprate, 3% Disodium phosphate,3%) it was 40%; in data set [1] (urine, base WITEPSOL W-35, additive Na caprate, 3%), 30.1%.
Take `CO/N=C(\C(=O)N[C@@H]1C(=O)N2C(C(=O)O)=C(CSc3nc(=O)c(=O)[nH]n3C)CS[C@H]12)c1csc(N)n1` [Cefatriaxone]: the AUC in data set [2] (setting [4]) turned out to be 22200 ng·h/mL.
Regarding `CC(C)(O/N=C(\C(=O)N[C@@H]1C(=O)N2C(C(=O)[O-])=C(C[n+]3ccccc3)CS[C@H]12)c1csc(N)n1)C(=O)O` [Ceftazidime], the AUC stood at 30100 ng·h/mL in data set [2] (dog, in vivo, 100 mg, base WITEPSOL H-5, additive Na caprate, 3% Lysine, 4%, read-out: AUC); 27600 ng·h/mL in data set [2] (dog, in vivo, 100 mg, base WITEPSOL H-5, additive Na caprate, 3% Na citrate, 4%, read-out: AUC); 29800 ng·h/mL in data set [2] (dog, in vivo, 100 mg, base WITEPSOL H-5, additive Na caprate, 3% Sodium carbonate, 4%, read-out: AUC); 30900 ng·h/mL in data set [2] (base WITEPSOL H-5, additive Na caprate, 3% Sodium carbonate, 4%).
Turning to `NC[C@@H]1CC[C@@H](N)[C@@H](O[C@H]2[C@H](O)[C@@H](O[C@H]3O[C@H](CO)[C@@H](O)[C@H](N)[C@H]3O)[C@H](N)C[C@@H]2N)O1` [Dibekacin], the AUC amounted to 1000 ng·h/mL in data set [2] (dog, blood, 100 mg, base WITEPSOL H-5, additive NIKKOL MYS-40, 4%, read-out: AUC); 42000 ng·h/mL in data set [2] (dog, blood, 100 mg, base WITEPSOL H-5, additive Na caprate, 3% NIKKOL BL-21, 4% Disodium hydrogen phosphate, 1%, read-out: AUC); 37000 ng·h/mL in data set [2] (dog, blood, 100 mg, base WITEPSOL H-5, additive Na caprate, 3% NIKKOL BL-21, 4%, read-out: AUC); 39900 ng·h/mL in data set [2] (dog, blood, 100 mg, base WITEPSOL H-5, additive Na caprate, 3% NIKKOL MYS-40, 4% Sodium carbonate, 4%, read-out: AUC); 27400 ng·h/mL in data set [2] (setting [4]); 24400 ng·h/mL in data set [2] (dog, blood, 100 mg, base WITEPSOL H-5, additive Na caprate, 3% Sodium carbonate, 4%, read-out: AUC). Further, the area under the curve (AUC) amounted to 14400 ng·h/mL in data set [2] (dog, blood, 100 mg, base WITEPSOL H-5, additive Na caprate, 3%, read-out: AUC) and 800 ng·h/mL in data set [2] (dog, blood, 100 mg, base WITEPSOL H-5, additive None, read-out: AUC).
Consider `CNC[C@@H]1CC[C@@H](N)[C@@H](O[C@H]2[C@H](O)[C@@H](O[C@H]3OC[C@](C)(O)[C@H](NC)[C@H]3O)[C@H](N)C[C@@H]2N)O1` [Micronomicin], for which the dose excreted at 6 h turned out to be 48.2% in data set [1] (in vivo, base WITEPSOL H-5, additive Na caprate, 3% Arginine Na, 4%); 50.3% in data set [1] (in vivo, base WITEPSOL H-5, additive Na caprate, 3% NIKKOL BL-21, 4%); 39.2% in data set [1] (setting [3]).
Consider `CCN[C@@H]1C[C@H](N)[C@@H](O[C@H]2OC(CN)=CC[C@H]2N)[C@H](O)[C@H]1O[C@H]1OC[C@](C)(O)[C@H](NC)[C@H]1O` [Netilmicin], for which the dose excreted at 6 h in data set [1] (urine, base WITEPSOL H-5, additive Na caprate, 3% Lysine, 4%) is 48%; in data set [1] (urine, base WITEPSOL H-5, additive Na caprate, 3% NIKKOL TO-10M, 4%) it was 52.6%; in data set [1] (urine, base WITEPSOL H-5, additive Na caprate, 3%) it was 40%.
With `CN[C@@H]1[C@@H](O)[C@@H](O[C@@H]2[C@@H](O)[C@H](O[C@H]3OC(CN)=CC[C@H]3N)[C@@H](N)C[C@H]2N)OC[C@]1(C)O` [Sisomicin], the dose excreted at 6 h was found to be 51.6% in data set [1] (urine, base WITEPSOL H-15, additive Na caprate, 2% NIKKOL BL-25, 4%); 30.8% in data set [1] (urine, base WITEPSOL H-15, additive Na caprate, 2%); 55% in data set [1] (urine, base WITEPSOL H-15, additive Na caprate, 3% Trisodium phosphate,4%).
For the compound `NC[C@H]1O[C@H](O[C@H]2[C@H](O)[C@@H](O[C@H]3O[C@H](CO)[C@@H](O)[C@H](N)[C@H]3O)[C@H](N)C[C@@H]2N)[C@H](N)C[C@@H]1O` [Tobramycin], the dose excreted at 6 h worked out at 53.8% in data set [1] (in vivo, base WITEPSOL W-35, additive Na caprate, 2% NIKKOL BL-9, 4%); 41.6% in data set [1] (in vivo, base WITEPSOL W-35, additive Na caprate, 2%); 49.2% in data set [1] (in vivo, base WITEPSOL W-35, additive Na caprate, 3% Disodium tatrate, 4% NIKKOL BL-9, 4%).
As for Fortimicin, the AUC worked out at 14800 ng·h/mL in data set [2] (base WITEPSOL H-5, additive Na caprate, 3%); 30000 ng·h/mL in data set [2] (base WITEPSOL H-5, additive Na caprate, 3% NIKKOL BL-21, 4%); 21700 ng·h/mL in data set [2] (base WITEPSOL H-5, additive Na caprate, 3% NIKKOL MYS-40, 4%); 21700 ng·h/mL in data set [2] (base WITEPSOL H-5, additive Na caprate, 3% Sodium carbonate, 2%); 1200 ng·h/mL in data set [2] (base WITEPSOL H-5, additive None).
